The supplement of paper PMC10307832

Key:
Assay in all cases: relative viability (nuclei count vs DMSO), 5 days (fraction); higher = more cells survive
201T = system: 201T
How it was run: (§1)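 The day after seeding in 1536-well plates, lung cancer cell lines were treated by pin tool with a single drug, or with a fixed anchor-drug dose together with five library-drug doses (not always all listed) in √10 steps. After 5 days, a combined fix-and-stain solution (final 0.05% Triton X-100, 1% formaldehyde, 1 ug/ml Hoechst) was added. Nuclei counted on 4× images gave relative viability as treated counts over vehicle counts, reported as the median of duplicate plates.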

CAL-12T = system: CAL-12T
How it was run: as §1

COR-L 105 = system: COR-L 105
How it was run: as §1

EKVX = system: EKVX
How it was run: as §1

EPLC-272H = system: EPLC-272H
How it was run: as §1

H3255 = system: H3255
How it was run: as §1

HCC-15 = system: HCC-15
How it was run: as §1

HCC-44 = system: HCC-44
How it was run: as §1

HCC-827 = system: HCC-827
How it was run: as §1

HOP-62 = system: HOP-62
How it was run: as §1

NCI-H1355 = system: NCI-H1355
How it was run: as §1

NCI-H1437 = system: NCI-H1437
How it was run: as §1

NCI-H1755 = system: NCI-H1755
How it was run: as §1

NCI-H1793 = system: NCI-H1793
How it was run: as §1

NCI-H2009 = system: NCI-H2009
How it was run: as §1

NCI-H322M = system: NCI-H322M
How it was run: as §1

NCI-H441 = system: NCI-H441
How it was run: as §1

NCI-H520 = system: NCI-H520
How it was run: as §1

NCI-H596 = system: NCI-H596
How it was run: as §1

NCI-H647 = system: NCI-H647
How it was run: as §1

PC-3 [JPC-3] = system: PC-3 [JPC-3]
How it was run: as §1

SK-LU-1 = system: SK-LU-1
How it was run: as §1

UMC-11 = system: UMC-11
How it was run: as §1

`Nc1cccc2c1CN(C1CCC(=O)NC1=O)C2=O` (stereo not given) [Lenalidomide] + CC1(C)CCC(c2ccc(Cl)cc2)=C(CN2CCN(c3ccc(C(=O)NS(=O)(=O)c4ccc(N[C@H](CCN5CCOCC5)CSc5ccccc5)c(S(=O)(=O)C(F)(F)F)c4)cc3)CC2)C1 [Navitoclax] (partner 0.5 µM) gave a relative viability (201T; first compound 0.253 µM) of 1.21, a relative viability (201T; first compound 0.8 µM) of 1.22 and a relative viability (201T; first compound 2.53 µM) of 1.19. For the same molecule, the relative viability (201T; first compound 8 µM) was 1.22, the relative viability (CAL-12T; first compound 0.253 µM) was 1.4 and the relative viability (CAL-12T; first compound 0.8 µM) was 1.33. The relative viability (CAL-12T; first compound 2.53 µM) was 1.7, the relative viability (CAL-12T; first compound 8 µM) was 1.3 and the relative viability (COR-L 105; first compound 0.253 µM) was 0.45. For the same molecule, the relative viability (COR-L 105; first compound 0.8 µM) was 0.81, the relative viability (COR-L 105; first compound 2.53 µM) was 0.717 and the relative viability (COR-L 105; first compound 8 µM) was 0.883. For the same molecule, the relative viability (EKVX; first compound 0.253 µM) was 0.882, the relative viability (EKVX; first compound 0.8 µM) was 0.855 and the relative viability (EKVX; first compound 2.53 µM) was 1.13. For the same molecule, the relative viability (EKVX; first compound 8 µM) was 0.843, the relative viability (EPLC-272H; first compound 0.253 µM) was 1.24 and the relative viability (EPLC-272H; first compound 2.53 µM) was 0.917. For the same molecule, the relative viability (EPLC-272H; first compound 8 µM) was 0.741, the relative viability (H3255; first compound 0.253 µM) was 0.519 and the relative viability (H3255; first compound 0.8 µM) was 0.395. For the same molecule, the relative viability (H3255; first compound 2.53 µM) was 0.589, the relative viability (H3255; first compound 8 µM) was 0.523 and the relative viability (HCC-15; first compound 0.253 µM) was 0.698. It also gave a relative viability (HCC-15; first compound 2.53 µM) of 0.814, a relative viability (HCC-15; first compound 8 µM) of 0.676 and a relative viability (HCC-44; first compound 0.253 µM) of 0.966. It also gave a relative viability (HCC-44; first compound 0.8 µM) of 0.75, a relative viability (HCC-44; first compound 2.53 µM) of 1.1 and a relative viability (HCC-44; first compound 8 µM) of 0.917. The relative viability (HCC-827; first compound 0.253 µM) was 1.06, the relative viability (HCC-827; first compound 0.8 µM) was 0.977 and the relative viability (HCC-827; first compound 2.53 µM) was 1.01. For the same molecule, the relative viability (HCC-827; first compound 8 µM) was 1.07, the relative viability (HOP-62; first compound 0.253 µM) was 1.07 and the relative viability (HOP-62; first compound 0.8 µM) was 0.985. The relative viability (HOP-62; first compound 2.53 µM) was 0.944, the relative viability (HOP-62; first compound 8 µM) was 1.04 and the relative viability (NCI-H1355; first compound 0.253 µM) was 1. It also gave a relative viability (NCI-H1355; first compound 0.8 µM) of 0.737, a relative viability (NCI-H1355; first compound 2.53 µM) of 0.889 and a relative viability (NCI-H1355; first compound 8 µM) of 0.561. For the same molecule, the relative viability (NCI-H1437; first compound 0.253 µM) was 1.08, the relative viability (NCI-H1437; first compound 0.8 µM) was 1.09 and the relative viability (NCI-H1437; first compound 2.53 µM) was 1.14. For the same molecule, the relative viability (NCI-H1437; first compound 8 µM) was 1.14, the relative viability (NCI-H1755; first compound 0.253 µM) was 0.994 and the relative viability (NCI-H1755; first compound 0.8 µM) was 1.01. It also gave a relative viability (NCI-H1755; first compound 2.53 µM) of 1.01, a relative viability (NCI-H1755; first compound 8 µM) of 0.745 and a relative viability (NCI-H1793; first compound 0.253 µM) of 0.349. The relative viability (NCI-H1793; first compound 0.8 µM) was 0.449, the relative viability (NCI-H1793; first compound 2.53 µM) was 0.426 and the relative viability (NCI-H1793; first compound 8 µM) was 0.315. The relative viability (NCI-H2009; first compound 0.253 µM) was 1.21, the relative viability (NCI-H2009; first compound 0.8 µM) was 1.26 and the relative viability (NCI-H2009; first compound 2.53 µM) was 1.21. It also gave a relative viability (NCI-H2009; first compound 8 µM) of 1.28, a relative viability (NCI-H322M; first compound 0.253 µM) of 1 and a relative viability (NCI-H322M; first compound 0.8 µM) of 1.42. For the same molecule, the relative viability (NCI-H322M; first compound 2.53 µM) was 1.17, the relative viability (NCI-H322M; first compound 8 µM) was 0.965 and the relative viability (NCI-H441; first compound 0.253 µM) was 0.507. For the same molecule, the relative viability (NCI-H441; first compound 0.8 µM) was 0.348, the relative viability (NCI-H441; first compound 2.53 µM) was 0.52 and the relative viability (NCI-H441; first compound 8 µM) was 0.513. The relative viability (NCI-H520; first compound 0.253 µM) was 0.958, the relative viability (NCI-H520; first compound 0.8 µM) was 1.05 and the relative viability (NCI-H520; first compound 2.53 µM) was 1.22. The relative viability (NCI-H520; first compound 8 µM) was 0.892, the relative viability (NCI-H596; first compound 0.253 µM) was 0.951 and the relative viability (NCI-H596; first compound 0.8 µM) was 0.795. For the same molecule, the relative viability (NCI-H596; first compound 2.53 µM) was 0.989, the relative viability (NCI-H596; first compound 8 µM) was 0.879 and the relative viability (NCI-H647; first compound 0.253 µM) was 1.08. For the same molecule, the relative viability (NCI-H647; first compound 0.8 µM) was 1.11, the relative viability (NCI-H647; first compound 2.53 µM) was 1.4 and the relative viability (NCI-H647; first compound 8 µM) was 1.04. The relative viability (PC-3 [JPC-3]; first compound 0.253 µM) was 0.752, the relative viability (PC-3 [JPC-3]; first compound 0.8 µM) was 0.771 and the relative viability (PC-3 [JPC-3]; first compound 2.53 µM) was 0.863. It also gave a relative viability (PC-3 [JPC-3]; first compound 8 µM) of 0.734, a relative viability (SK-LU-1; first compound 0.253 µM) of 0.729 and a relative viability (SK-LU-1; first compound 0.8 µM) of 0.946. The relative viability (SK-LU-1; first compound 2.53 µM) was 1.45, the relative viability (SK-LU-1; first compound 8 µM) was 0.924 and the relative viability (UMC-11; first compound 0.253 µM) was 0.317. The relative viability (UMC-11; first compound 0.8 µM) was 0.28, the relative viability (UMC-11; first compound 2.53 µM) was 0.346 and the relative viability (UMC-11; first compound 8 µM) was 0.277.
